This note sets out measurements from ChEMBL document CHEMBL1145229, “Identified a morpholinyl-4-piperidinylacetic acid derivative as a potent oral active VLA-4 antagonist” (Bioorg Med Chem Lett, 2005).

A short description of data set [1]: in vivo. The settings on record: rat.
Description: Half life in lambda1 phase in rat
A short description of data set [2]: in vivo. The settings on record: rat. This is another data set of the same source.
Description: Half life in lambda2 phase in rat
A short description of data set [3]: in vivo. As to conditions: Sprague-Dawley, rat, iv, 1.2 mg/kg.
Description: Clearance in sprague dawley rat at 1.2 mg/kg intra venous dosage
Data set [4] in a line: in vivo. As to conditions: Sprague-Dawley, rat, po, 1.2 mg/kg.
Description: Percent bioavailability in sprague-dawley rat at a dosage(inta venous 1.2 mg/kg, oral 5 mg/kg )

For orientation: half-life means the time in which the quantity being followed falls by half. Broadly, the clearance is a measure of how efficiently the substance is removed, as volume per time. A higher clearance goes with efficient removal. The term bioavailability denotes the share of a dose that reaches the circulation, judged against a reference dose that is usually intravenous.

With `Cc1ccccc1NC(=O)Nc1ccc(CC(=O)N2CCCC2C(=O)NCCCCC(=O)O)cc1` (stereo not drawn), the figures for the half-life in data set [1] and in data set [2] were 2.8 min and 9.1 min, respectively. The same molecule returned a clearance in data set [3] of 75.1 mL/min/kg. Further, the bioavailability in data set [4] is < 1%.

As to `Cc1ccccc1NC(=O)Nc1ccc(CC(=O)N2CCCC2C(=O)N2CCC(CC(=O)O)CC2)cc1` (stereo not drawn), the figures for the half-life in data set [1] and in data set [2] were 5.8 min and 20.2 min, respectively. The clearance in data set [3] turned out to be 41.3 mL/min/kg. Further, the bioavailability in data set [4] is < 1%.
